Experimental data reported in ChEMBL document CHEMBL4622837, “Finding the mechanism of esterase D activation by a small molecule” (Bioorg Med Chem Lett, 2020).
Activity calls are given as the source filed them. The calls are words filed in the database; no cut-off is given here.

How the values were obtained:
[1] = biological target: T1, S-formylglutathione hydrolase (Homo sapiens) (UniProt P10768); experiment: Activation of ESD in human L02 cells at 0.1 to 1 uM after 24 hrs; assay type: cell-based
T1 sequence (whole entry): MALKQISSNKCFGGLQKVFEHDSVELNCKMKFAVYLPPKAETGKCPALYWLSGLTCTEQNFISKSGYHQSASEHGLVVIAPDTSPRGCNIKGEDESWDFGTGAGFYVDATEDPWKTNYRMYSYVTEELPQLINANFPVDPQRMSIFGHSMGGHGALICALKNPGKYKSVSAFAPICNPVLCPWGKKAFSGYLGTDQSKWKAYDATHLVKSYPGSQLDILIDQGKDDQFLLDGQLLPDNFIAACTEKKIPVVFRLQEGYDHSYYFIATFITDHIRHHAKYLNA

[2] = biological target: T1, S-formylglutathione hydrolase (Homo sapiens); experiment: Binding affinity to human ESD expressed in HEK293T cells assessed as association rate constant; assay type: cell-based; details: HEK-293T
[3] = biological target: T1, S-formylglutathione hydrolase (Homo sapiens); experiment: Inhibition of IgG binding to human ESD expressed in HEK293T cells; assay type: cell-based; details: HEK-293T
[4] = biological target: T1, S-formylglutathione hydrolase (Homo sapiens); experiment: Activation of human ESD expressed in HEK293T cells transfected with pEGFP-N1 assessed as protein redistribution in cytoplasm by fluorescence microscopic analysis; assay type: cell-based; details: HEK-293T
[5] = biological target: T1, S-formylglutathione hydrolase (Homo sapiens); experiment: Activation of wild type human ESD expressed in HEK293T cells assessed as increase in protein mono ubiquitination at 0.1 to 1 uM incubated for 12 hrs by Western blot analysis; assay type: cell-based; details: HEK-293T
HEK-293T [6] = experiment: Inhibition of IgG binding to ESD K180A mutant (unknown origin) expressed in HEK293T cells; assay type: cell-based; details: Homo sapiens
[7] = biological target: T1, S-formylglutathione hydrolase (Homo sapiens); experiment: Activation of human ESD expressed in HEK293T cells transfected with pEGFP-N1 assessed as induction of protein mono ubiquitination at 5 uM after 3 hrs by immunoblotting analysis; assay type: cell-based; details: HEK-293T
HeLa [8] = experiment: Activation of ESD K213A mutant (unknown origin) expressed in human HeLa cells transfected with p-EGFP assessed as protein co-localization by fluorescence microscopic analysis; assay type: cell-based
[9] = biological target: T2, S-formylglutathione hydrolase (Homo sapiens, UniProt P10768); experiment: Binding affinity to human ESD expressed in HEK293T cells assessed as dissociation constant; assay type: cell-based, HEK-293T
T2 sequence (P10768 whole entry): T1 sequence (whole entry)

HEK-293T [10] = experiment: Activation of ESD K180A mutant (unknown origin) expressed in HEK293T cells transfected with p-EGFP assessed as protein mono ubiquitination at 0.1 to 1 uM measured up to 24 hrs by Western blot analysis; assay type: cell-based; details: Homo sapiens
[11] = biological target: T1, S-formylglutathione hydrolase (Homo sapiens); experiment: Activation of human ESD expressed in HEK293T cells transfected with pEGFP-N1 assessed as increase in protein mono ubiquitination at 0.1 to 5 uM after 12 to 24 hrs by immunoblotting analysis; assay type: cell-based; details: HEK-293T
HEK-293T [12] = experiment: Activation of ESD K213A mutant (unknown origin) expressed in HEK293T cells transfected with p-EGFP assessed as increase in protein mono ubiquitination at 0.1 to 1 uM measured up to 36 hrs by Western blot analysis; assay type: cell-based; details: Homo sapiens
[13] = biological target: T1, S-formylglutathione hydrolase (Homo sapiens); experiment: Activation of human ESD expressed in HEK293T cells transfected with pEGFP-N1 assessed as induction of protein mono ubiquitination at 1 to 5 uM after 6 hrs by immunoblotting analysis; assay type: cell-based; details: HEK-293T
[14] = biological target: T1, S-formylglutathione hydrolase (Homo sapiens); experiment: Inhibition of IgG binding to ESD in human L02 cells by immuno precipitation assay; assay type: cell-based
[15] = biological target: T1, S-formylglutathione hydrolase (Homo sapiens); experiment: Activation of human ESD expressed in HEK293T cells transfected with pEGFP-N1 assessed as compound co-localization with protein by fluorescence microscopic analysis; assay type: cell-based; details: HEK-293T
HeLa [16] = experiment: Activation of ESD K180A mutant (unknown origin) expressed in human HeLa cells transfected with p-EGFP at 0.1 uM; assay type: cell-based
HeLa [17] = experiment: Activation of ESD K180A mutant (unknown origin) expressed in human HeLa cells transfected with p-EGFP assessed as compound co-localization with protein by fluorescence microscopic analysis; assay type: cell-based
[18] = biological target: T1, S-formylglutathione hydrolase (Homo sapiens); experiment: Activation of human ESD expressed in HEK293T cells transfected with pEGFP-N1 at 0.1 uM after 24 hrs; assay type: cell-based; details: HEK-293T
HeLa [19] = experiment: Activation of ESD K213A mutant (unknown origin) expressed in human HeLa cells transfected with p-EGFP at 0.1 uM; assay type: cell-based
HEK-293T [20] = experiment: Activation of ESD K213A mutant (unknown origin) expressed in HEK293T cells transfected with p-EGFP assessed as induction of protein mono ubiquitination at 0.1 to 1 uM measured up to 24 hrs by immunoblotting analysis; assay type: cell-based; details: Homo sapiens
[21] = biological target: T2, S-formylglutathione hydrolase; experiment: Binding affinity to human ESD expressed in HEK293T cells assessed as dissociation rate constant; assay type: cell-based; details: hek-293t
HEK-293T [22] = experiment: Inhibition of IgG binding to ESD K213A mutant (unknown origin) expressed in HEK293T cells; assay type: cell-based; details: Homo sapiens
HEK-293T [23] = experiment: Activation of ESD K180A mutant (unknown origin) expressed in HEK293T cells transfected with p-EGFP assessed as increase in protein mono ubiquitination at 0.1 to 1 uM measured up to 36 hrs by Western blot analysis; assay type: cell-based; details: Homo sapiens

Activity [1]: Active
Ka [2]: 5.2 ×10⁵ /M/s
inhibition [3]: Dose-dependent effect
Activity [4]: Active
Activity [5]: Active
Activity [7]: Active
Kd [9]: 0.8 nM
Activity [11]: Active
Activity [13]: Active
inhibition [14]: Dose-dependent effect
Activity [15]: Active
Activity [18]: Active
Kd [21]: 4.4 ×10⁻⁴ /s
Compound: Oc1ccc(Cl)cc1C1=NN(c2ccccn2)C(c2ccccc2)C1 (stereo not drawn)
inhibition (HEK-293T [6]): inactive
Activity (HeLa [8]): inactive
Activity (HEK-293T [10]): inactive
Activity (HEK-293T [12]): inactive
Activity (HeLa [16]): inactive
Activity (HeLa [17]): inactive
Activity (HeLa [19]): inactive
Activity (HEK-293T [20]): inactive
inhibition (HEK-293T [22]): inactive
Activity (HEK-293T [23]): inactive
